This assay relates to human RS virus A2 strain. The assay can be described thus: In vitro test for anti-RS virus proliferation inhibitory activity (quantitative RT-PCR of RS virus RNA copy number in infected Vero cells). The assay is classed as cell-based. The settings on record: 72 h; Vero cells infected with human RS virus A2 strain, 3 days of incubation, RS virus RNA copy number by quantitative RT-PCR; read-out: Anti-RS virus Activity. The gist of the method: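 Vero cells infected with RSV A2 (1.7×10^4 TCID50/mL in inoculum mix) with compound in 10% FCS EMEM, 3 days at 37 °C, 5% CO2. Lysate viral N-gene RNA quantified by one-step SYBR qRT-PCR; copy number by comparative Ct relative to untreated infected cells.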
As to `O=C(NCc1ccccc1)N1[C@@H]2CC[C@@H](C2)[C@H]1c1nnc(Cc2c[nH]c3ccccc23)[nH]1` [Compound 24F, (1R,3S,4S)-3-(5-((1H-indol-3-yl)methyl)-4H-1,2,4-triazol-3-yl)-N-benzyl-2-azabicyclo[2.2.1]heptane-2-carboxamide], the IC50 fell in the range of 10 to 50 µM.
For the compound `CC(C)(C)NC(=O)N1[C@@H]2CC[C@@H](C2)[C@H]1c1nnc(Cc2c[nH]c3ccccc23)[nH]1` [Compound 24H, (1R,3S,4S)-3-(5-((1H-indol-3-yl)methyl)-4H-1,2,4-triazol-3-yl)-N-(tert-butyl)-2-azabicyclo[2.2.1]heptane-2-carboxamide], the IC50 was in the range of 10 to 50 µM.
Regarding `CC(C)(C)OC(=O)N1[C@@H]2CC[C@@H](C2)[C@H]1c1nnc(CCc2ccncc2)[nH]1` [Compound 25-1, Tert-butyl (1R,3S,4S)-3-(5-(2-(pyridin-4-yl)ethyl)-4H-1,2,4-triazol-3-yl)-2-azabicyclo[2.2.1]heptane-2-carboxylate], the IC50 was in the range of 10 to 50 µM.
In the case of `CC(C)CS(=O)(=O)N1[C@@H]2CC[C@@H](C2)[C@H]1c1nnc(CCc2ccncc2)[nH]1` [Compound 25A, (1R,3S,4S)-2-(isobutylsulfonyl)-3-(5-(2-(pyridin-4-yl)ethyl)-4H-1,2,4-triazol-3-yl)-2-azabicyclo[2.2.1]heptane] it was 10 to 50 µM; in that of `O=S(=O)(N1CCCCC1)N1[C@@H]2CC[C@@H](C2)[C@H]1c1nnc(CCc2ccncc2)[nH]1` [Compound 25AD, (1R,3S,4S)-2-(piperidine-1-ylsulfonyl)-3-(5-(2-(pyridin-4-yl)ethyl)-4H-1,2,4-triazol-3-yl)-2-azabicyclo[2.2.1]heptane], 10 to 50 µM; in that of `O=C(NCc1noc([C@@H]2CCCCN2S(=O)(=O)C2CCCCC2)n1)c1cccc2ccccc12` [Compound 26B, (S)—N-((5-(1-(cyclohexylsulfonyl)piperidin-2-yl)-1,2,4-oxadiazol-3-yl)methyl)-1-naphthamide], 10 to 50 µM.
Regarding `COc1ccc(C(=O)NCc2noc([C@@H]3CCCCN3S(=O)(=O)C3CCCCC3)n2)cc1OC` [Compound 27B, (S)—N-((5-(1-(cyclohexylsulfonyl)piperidin-2-yl)-1,2,4-oxadiazol-3-yl)methyl)-3,4-dimethoxybenzamide], the IC50 lay in the range of 10 to 50 µM.
In the case of `CC(C)(C)OC(=O)N1[C@@H]2CC[C@@H](C2)[C@H]1c1nnc(Cc2cc3ccccc3[nH]2)[nH]1` [Compound 28-1, Tert-butyl (1R,3S,4S)-3-(5-((1H-indol-2-yl)methyl)-4H-1,2,4-triazol-3-yl)-2-azabicyclo[2.2.1]heptane-2-carboxylate], the IC50 lay within 10 to 50 µM.
On to `O=C(NCc1cnc2ccccc2c1)N1[C@@H]2CC[C@@H](C2)[C@H]1c1nnc(Cc2cc3ccccc3[nH]2)[nH]1` [Compound 28AH], for which the IC50 fell in the range of 10 to 50 µM.
Consider `O=S(=O)(C1CCCCC1)N1[C@@H]2CC[C@@H](C2)[C@H]1c1nnc(CCc2ccncc2)[nH]1` [Compound 29B, (1R,3S,4S)-2-(cyclohexylsulfonyl)-3-(5-(2-(pyridin-4-yl)ethyl)-4H-1,2,4-triazol-3-yl)-2-azabicyclo[2.2.1]heptane], for which the IC50 is 10 to 50 µM.
Regarding `CC(C)(C)OC(=O)NCc1ccc(CCCc2noc([C@@H]3CCCCN3S(=O)(=O)C3CCCCC3)n2)cc1` [Compound 30B], the IC50 lay within 10 to 50 µM.
Turning to `COC(=O)c1nc([C@@H]2CCCCN2S(=O)(=O)C2CCCCC2)oc1C` [Compound 32B, Methyl (S)-2-(1-(cyclohexylsulfonyl)piperidin-2-yl)-5-methyloxazole-4-carboxylate], the IC50 was 10 to 50 µM.
As for `Cc1oc([C@@H]2CCCCN2S(=O)(=O)C2CCCCC2)nc1C(=O)O` [Compound 33B, (S)-2-(1-(Cyclohexylsulfonyl)piperidin-2-yl)-5-methyl oxazole-4-carboxylic acid], the IC50 was 10 to 50 µM.
Consider `Cc1oc([C@@H]2CCCCN2S(=O)(=O)C2CCCCC2)nc1C(=O)NCc1ccccc1` [Compound 34B, (S)—N-Benzyl-2-(1-(cyclohexylsulfonyl)piperidin-2-yl)-5-methyloxazole-4-carboxamide], for which the IC50 fell in the range of 10 to 50 µM.
`COC(=O)c1nc([C@@H]2CCCCN2S(=O)(=O)C2CCCCC2)sc1C` [Compound 35B, Methyl (S)-2-(1-(cyclohexylsulfonyl)piperidin-2-yl)-5-methylthiazole-4-carboxylate]: the IC50 is 10 to 50 µM.
For `Cc1sc([C@@H]2CCCCN2S(=O)(=O)C2CCCCC2)nc1C(=O)O` [Compound 36B, (S)-2-(1-(Cyclohexylsulfonyl)piperidin-2-yl)-5-methyl thiazole-4-carboxylic acid], the IC50 was less than 10 µM.
With `Cc1sc([C@@H]2CCCCN2S(=O)(=O)C2CCCCC2)nc1C(=O)NCc1ccccc1` [Compound 37B, (S)—N-Benzyl-2-(1-(cyclohexylsulfonyl)piperidin-2-yl)-5-methylthiazole-4-carboxamide], the IC50 was less than 10 µM.
`COC(=O)c1nc([C@@H]2CCCCN2S(=O)(=O)C2CCCCC2)[nH]c1C` [Compound 38B, Methyl (S)-2-(1-(cyclohexylsulfonyl)piperidin-2-yl)-5-methyl-1H-Imidazole-4-carboxylate]: the IC50 lay within 10 to 50 µM.
Turning to `O=S(=O)(c1ccc(F)cc1)N1CCC[C@H]1c1cn(Cc2ccccc2)nn1` [Compound 39AJ, (S)-1-Benzyl-4-(1-((4-fluorophenyl)sulfonyl)pyrrolidin-2-yl)-1H-1,2,3-triazole], the IC50 was less than 10 µM.
On to `O=S(=O)(C1CCCCC1)N1CCCCC1c1ncc(-c2ccccc2)[nH]1` (centres unmarked) [Compound 40B], for which the IC50 lay within 10 to 50 µM.
`CC(C)(C)OC(=O)N1C[C@@H](C#N)C[C@H]1c1nc(CCCc2ccccc2)no1` [Compound 41-1, Tert-butyl (2S,4S)-4-cyano-2-(3-(3-phenylpropyl)-1,2,4-oxadiazol-5-yl)pyrrolidine-1-carboxylate]: the IC50 lay in the range of 10 to 50 µM.
With `N#C[C@H]1C[C@@H](c2nc(CCCc3ccccc3)no2)N(S(=O)(=O)c2ccc(F)cc2)C1` [Compound 41AJ, (3S,5S)-1-((4-fluorophenyl)sulfonyl)-5-(3-(3-phenylpropyl)-1,2,4-oxadiazol-5-yl)pyrrolidine-3-carbonitrile], the IC50 fell in the range of 10 to 50 µM.
As to `NC(=O)[C@H]1C[C@@H](c2nc(CCCc3ccccc3)no2)N(S(=O)(=O)c2ccc(F)cc2)C1` [Compound 42AJ, (3S,5S)-1-((4-fluorophenyl)sulfonyl)-5-(3-(3-phenylpropyl)-1,2,4-oxadiazol-5-yl)pyrrolidine-3-carboxamide], the IC50 was in the range of 10 to 50 µM.
In the case of `CC(C)(C)OC(=O)NCc1noc([C@@H]2C[C@@H](c3ccccc3)CN2S(=O)(=O)c2ccc(F)cc2)n1` [Compound 43AJ, Tert-butyl ((5-((2S,4S)-1-((4-fluorophenyl)sulfonyl)-4-phenylpyrrolidin-2-yl)-1,2,4-oxadiazol-3-yl)methyl) carbamate], the IC50 lay in the range of 10 to 50 µM.
Next, `O=C(NCc1noc([C@@H]2C[C@@H](c3ccccc3)CN2S(=O)(=O)c2ccc(F)cc2)n1)c1ccc2ccccc2n1` [Compound 45AJ, N-((5-((2S,4S)-1-((4-fluorophenyl)sulfonyl)-4-phenylpyrrolidin-2-yl)-1,2,4-oxadiazol-3-yl)methyl)quinoline-2-carboxamide]: 10 to 50 µM; `O=C(NCc1noc([C@@H]2C[C@@H](c3ccccc3)CN2S(=O)(=O)c2ccc(F)cc2)n1)c1cnc2ccccc2c1` [Compound 46AJ, N-((5-((2S,4S)-1-((4-fluorophenyl)sulfonyl)-4-phenylpyrrolidin-2-yl)-1,2,4-oxadiazol-3-yl)methyl)quinoline-3-carboxamide]: 10 to 50 µM; `CC(C)(C)OC(=O)N1C[C@H](c2ccccc2)C[C@H]1c1nc(Cc2ccccc2)no1` [Compound C1-7-1, Tert-butyl (2S,4S)-2-(3-benzyl-1,2,4-oxadiazol-5-yl)-4-phenylpyrrolidine-1-carboxylate]: less than 10 µM.
As for `CC(C)(C)OC(=O)N1C[C@H](c2ccccc2)C[C@H]1c1nc(CCc2ccccc2)no1` [Compound C2-7-1, Tert-butyl (2S,4S)-2-(3-phenethyl-1,2,4-oxadiazol-5-yl)-4-phenylpyrrolidine-1-carboxylate], the IC50 was 10 to 50 µM.
Turning to `CC(C)(C)OC(=O)N1CCCC[C@H]1c1noc(CCc2ccccc2)n1` [Compound C2-16-1, Tert-butyl (S)-2-(5-phenethyl-1,2,4-oxadiazol-3-yl) piperidine-1-carboxylate], the IC50 was in the range of 10 to 50 µM.
Regarding `CC(C)(C)OC(=O)N1CCCC[C@H]1c1noc(CCCc2ccccc2)n1` [Compound C3-16-1, Tert-butyl (S)-2-(5-(3-phenylpropyl)-1,2,4-oxadiazol-3-yl) piperidine-1-carboxylate], the IC50 was less than 10 µM.
In the case of `CC(C)(C)OC(=O)N1C[C@H](c2ccccc2)C[C@H]1c1nc(CCCCc2ccccc2)no1` [Compound C4-7-1, Tert-butyl (2S,4S)-4-phenyl-2-(3-(4-phenylbutyl)-1,2,4-oxadiazol-5-yl)pyrrolidine-1-carboxylate], the IC50 is less than 10 µM.
In the case of `CC(C)(C)OC(=O)N1C[C@H](c2ccccc2)C[C@H]1c1nc(CCCCCc2ccccc2)no1` [Compound C5-7-1, Tert-butyl (2S,4S)-4-phenyl-2-(3-(5-phenylpentyl)-1,2,4-oxadiazol-5-yl)pyrrolidine-1-carboxylate] it was less than 10 µM.

The values are drawn from patent US20240327392A1, “HETEROCYCLOALKYL-SUBSTITUTED POLYHETEROAZOLE DERIVATIVES AS MEDICAMENTS FOR TREATING AND/OR PREVENTING RS VIRUS INFECTIONS” (ALBIUS SCIENCES ALPHA PRIVATE LIMITED, priority 2021, published 2024).
